Measurements reported in ChEMBL document CHEMBL3352247, “Synthesis and antimycobacterial evaluation of 5-alkylamino-N-phenylpyrazine-2-carboxamides” (Bioorg Med Chem, 2015).
Converted amounts (≈) assume the structure as drawn. The source made the active and inactive calls. The calls are words filed in the database; no cut-off is given here.

Key:
Aspergillus fumigatus = assay: Antifungal activity against Aspergillus fumigatus 231 after 24 to 48 hrs by two-fold dilution method; assay type: functional, organism-based
Staphylococcus aureus [1] = assay: Antibacterial activity against Staphylococcus aureus CCM 4516/08 after 24 to 48 hrs by broth microdilution method; assay type: functional, organism-based
Pichia kudriavzevii = assay: Antifungal activity against Candida krusei E28 after 24 to 48 hrs by two-fold dilution method; assay type: functional, organism-based
Enterococcus sp. [2] = assay: Antibacterial activity against Enterococcus sp. J 14365/08 clinical isolate after 24 to 48 hrs by broth microdilution method; assay type: functional, organism-based
[3] = system: Trichophyton mentagrophytes; assay: Antifungal activity against Trichophyton mentagrophytes 445 after 72 to 120 hrs by two-fold dilution method; assay type: functional, organism-based
Mycobacterium kansasii [4] = assay: Antimycobacterial activity against Mycobacterium kansasii CNCTC My 235/80 after 5 to 7 days by AlamarBlue assay; assay type: functional
Staphylococcus aureus [5] = assay: Antibacterial activity against methicillin-resistant Staphylococcus aureus H 5996/08 clinical isolate after 24 to 48 hrs by broth microdilution method; assay type: functional, organism-based
Lichtheimia corymbifera = assay: Antifungal activity against Absidia corymbifera 272 after 24 to 48 hrs by two-fold dilution method; assay type: functional, organism-based
Nakaseomyces glabratus = assay: Antifungal activity against Candida glabrata 20/I after 24 to 48 hrs by two-fold dilution method; assay type: functional, organism-based
Pseudomonas aeruginosa = assay: Antibacterial activity against Pseudomonas aeruginosa CCM 1961 after 24 to 48 hrs by broth microdilution method; assay type: functional, organism-based
[6] = system: Staphylococcus epidermidis; assay: Antibacterial activity against Staphylococcus epidermidis H 6966/08 clinical isolate after 24 to 48 hrs by broth microdilution method; assay type: functional, organism-based
Klebsiella pneumoniae [7] = assay: Antibacterial activity against ESBL-positive Klebsiella pneumoniae J 14368/08 clinical isolate after 24 to 48 hrs by broth microdilution method; assay type: functional, organism-based
Klebsiella pneumoniae [8] = assay: Antibacterial activity against Klebsiella pneumoniae D 11750/08 clinical isolate after 24 to 48 hrs by broth microdilution method; assay type: functional, organism-based
Candida tropicalis = assay: Antifungal activity against Candida tropicalis 156 after 24 to 48 hrs by two-fold dilution method; assay type: functional, organism-based
[9] = Antimycobacterial activity against Mycobacterium avium subsp. avium Chester CNCTC My 80/72 after 5 days by AlamarBlue assay; assay type: functional; conditions: Chester CNCTC My 80/72, 120 h
Candida albicans = assay: Antifungal activity against Candida albicans ATCC 44859 after 24 to 48 hrs by two-fold dilution method; assay type: functional, organism-based
[10] = system: Mycobacterium tuberculosis; assay: Antimycobacterial activity against Mycobacterium tuberculosis H37Rv CNCTC My 331/88 after 10 to 14 days by AlamarBlue assay; assay type: functional
Enterococcus sp. [11] = assay: Antibacterial activity against Enterococcus sp. after 24 to 48 hrs by broth microdilution method; assay type: functional
Escherichia coli = assay: Antibacterial activity against Escherichia coli CCM 4517 after 24 to 48 hrs by broth microdilution method; assay type: functional, organism-based
Trichosporon asahii = assay: Antifungal activity against Trichosporon asahii 1188 after 24 to 48 hrs by two-fold dilution method; assay type: functional, organism-based
[12] = Antimycobacterial activity against Mycobacterium avium subsp. avium Chester CNCTC My 80/72 in Middlebrook 7H9 broth after 5 days by AlamarBlue assay; assay type: functional; conditions: Chester CNCTC My 80/72, 120 h
Mycobacterium kansasii [13] = assay: Antimycobacterial activity against Mycobacterium kansasii CNCTC My 235/80 in Middlebrook 7H9 broth after 5 days by AlamarBlue assay; assay type: functional; conditions: CNCTC My 235/80, 120 h
[14] = system: Mycobacterium tuberculosis; assay: Antimycobacterial activity against Mycobacterium tuberculosis H37Rv CNCTC My 331/88 in Middlebrook 7H9 broth after 5 days by AlamarBlue assay; assay type: functional; conditions: H37Rv CNCTC My 331/88, 120 h

SMILES | Activity (Aspergillus fumigatus) | Activity (Staphylococcus aureus [1]) | Activity (Pichia kudriavzevii) | Activity (Enterococcus sp. [2]) | Activity [3] | MIC (Mycobacterium kansasii [4]) | Activity (Staphylococcus aureus [5]) | Activity (Lichtheimia corymbifera) | Activity (Nakaseomyces glabratus) | Activity (Pseudomonas aeruginosa) | Activity [6] | Activity (Klebsiella pneumoniae [7]) | Activity (Klebsiella pneumoniae [8]) | Activity (Candida tropicalis) | MIC [9] [mg/L] | Activity (Candida albicans) | MIC [10] | Activity (Enterococcus sp. [11]) | Activity (Escherichia coli) | Activity (Trichosporon asahii) | also measured
CCCCCCCCNc1cnc(C(=O)Nc2ccccc2Cl)cn1 | inactive | inactive | inactive | inactive | inactive | > 25 mg/L | inactive | inactive | inactive | inactive | inactive | inactive | inactive | inactive | > 25 | inactive | > 25 mg/L | Active | inactive | inactive | 
O=C(Nc1ccccc1Cl)c1cnc(Cl)cn1 |  |  |  |  |  |  |  |  |  |  |  |  |  |  | > 100 |  | 2 µM |  |  |  | 
CCCCCCCCNc1cnc(C(=O)Nc2ccccc2)cn1 | inactive | inactive | inactive | inactive | inactive | > 100 mg/L | inactive | inactive | inactive | inactive | inactive | inactive | inactive | inactive | > 100 | inactive | 9.6 µM |  | inactive | inactive | MIC (Enterococcus sp. [11]): 62.5 µM (≈ 20.4 µg/mL)
CCCCCCNc1cnc(C(=O)Nc2ccccc2)cn1 | inactive | inactive | inactive | inactive | inactive | 2.6 µM | inactive | inactive | inactive | inactive | inactive | inactive | inactive | inactive | > 100 | inactive | 2.6 µM | Active | inactive | inactive | 
CCCCNc1cnc(C(=O)Nc2ccccc2Cl)cn1 | inactive | inactive | inactive | inactive | inactive | > 100 mg/L | inactive | inactive | inactive | inactive | inactive | inactive | inactive | inactive | > 100 | inactive | > 100 mg/L |  | inactive | inactive | MIC (Enterococcus sp. [11]): 62.5 µM (≈ 19 µg/mL)
CCCNc1cnc(C(=O)Nc2ccccc2)cn1 | inactive | inactive | inactive | inactive | inactive | 48.8 µM | inactive | inactive | inactive | inactive | inactive | inactive | inactive | inactive | > 100 | inactive | 12.2 µM | Active | inactive | inactive | 
CCCCCCCNc1cnc(C(=O)Nc2ccccc2Cl)cn1 | inactive | inactive | inactive | inactive | inactive | > 25 mg/L | inactive | inactive | inactive | inactive | inactive | inactive | inactive | inactive | > 25 | inactive | 36 µM | Active | inactive | inactive | 
CCCCCCNc1cnc(C(=O)Nc2ccccc2Cl)cn1 | inactive | inactive | inactive | inactive | inactive | > 100 mg/L | inactive | inactive | inactive | inactive | inactive | inactive | inactive | inactive | > 100 | inactive | > 100 mg/L | Active | inactive | inactive | 
NNC(=O)c1ccncc1 [ISONIAZID] |  |  |  |  |  | 11.4 µM |  |  |  |  |  |  |  |  | 12.5 (≈ 91.1 µM) |  | 1.5 µM |  |  |  | 
NC(=O)c1cnccn1 [PYRAZINAMIDE] |  |  |  |  |  | > 100 mg/L |  |  |  |  |  |  |  |  | > 100 |  | 50.8 µM |  |  |  | 
O=C(Nc1ccccc1)c1cnc(NCCCc2ccccc2)cn1 | inactive | inactive | inactive | inactive | inactive |  | inactive | inactive | inactive | inactive | inactive | inactive | inactive | inactive |  | inactive |  |  | inactive | inactive | MIC [12]: > 100 mg/L; MIC (Mycobacterium kansasii [13]): > 100 mg/L; MIC [14]: 75.2 µM
O=C(Nc1ccccc1Cl)c1cnc(NCCCO)cn1 | inactive | inactive | inactive | inactive | inactive |  | inactive | inactive | inactive | inactive | inactive | inactive | inactive | inactive |  | inactive |  |  | inactive | inactive | MIC [12]: > 100 mg/L; MIC (Mycobacterium kansasii [13]): > 100 mg/L; MIC [14]: > 100 mg/L
COCCNc1cnc(C(=O)Nc2ccccc2)cn1 | inactive | inactive | inactive | inactive | inactive |  | inactive | inactive | inactive | inactive | inactive | inactive | inactive | inactive |  | inactive |  |  | inactive | inactive | MIC [12]: > 100 mg/L; MIC (Mycobacterium kansasii [13]): > 100 mg/L; MIC [14]: 184 µM
O=C(Nc1ccccc1)c1cnc(NCCCCCO)cn1 | inactive | inactive | inactive | inactive | inactive |  | inactive | inactive | inactive | inactive | inactive | inactive | inactive | inactive |  | inactive |  |  | inactive | inactive | MIC [12]: > 100 mg/L; MIC (Mycobacterium kansasii [13]): > 100 mg/L; MIC [14]: 41.6 µM
O=C(Nc1ccccc1)c1cnc(NCCc2ccccc2)cn1 | inactive | inactive | inactive | inactive | inactive |  | inactive | inactive | inactive | inactive | inactive | inactive | inactive | inactive |  | inactive |  |  | inactive | inactive | MIC [12]: > 100 mg/L; MIC (Mycobacterium kansasii [13]): > 100 mg/L; MIC [14]: 39.3 µM
